The source of these data is patent US20080076721A1, “Use of branched chain fatty acid amino acid salts and compositions thereof” (priority 2006, published 2008).

Each structure is given as a SMILES string. Entries after “also recorded” stand apart in the source; their conditions may differ.

The assay can be described thus: L-arginine phytanate method of use: 4-week oral post-workout supplementation in an experienced weight trained person (body weight, bench press). Format: in vivo, human. An excerpt:
In this example a experienced weight trained person orally consumes 3 grams of L-arginine phytanate post workout for 4 weeks as a beverage, consumes no supplements for 4 weeks, then orally consumes phytanic acid in the same manner post workout for 4 weeks. The L-arginine phytanate is incorporated into free powder mixture of flavoring agents and palatinose, which is then combined with water. Once in the plasma L-arginine phytanate then exerts a synergistic lean tissue promoting effect due to the anabolic actions of phytanic acid and L-arginine. Phytanic acid activates PPAR alpha, beta/delta, gamma, and increases nitric oxide synthase thus increasing nitric oxide production. This wide range of PPAR receptor activation and nitric oxide release combined with a high protein diet and anaerobic training program, enhances muscle building and fat loss. The L-arginine synergistically promotes protein synthesis and nitric oxide release. These physiological functions lead to increases in lean body mass, strength, endurance, recovery and loss of body fat. The test subject reported a weight gain of 5 lbs., a 25-pound increase in 1 repetition maximum (RM) bench press, and 6-repetition increase in initial 70 percent maximum bench press at the end of the L-arginine phytanate 4-week period as compared to baseline values. These increases contribute to the regulation of athletic function and thus lead to enhanced physical performance. […] During the final phase of the experiment, the test subject reported no increases in body weight, 1 repetition maximum bench press, or 70 percent maximum bench press.

[1] abbreviates: experienced weight trained person, 3 grams orally post workout for 4 weeks, end of 4-week period compared to baseline.
[2] abbreviates: same subject, final phase after 4-week washout, orally in the same manner post workout for 4 weeks, result in words.

Turning to `CC(C)CCCC(C)CCCC(C)CCCC(C)CC(=O)O.N=C(N)NCCC[C@H](N)C(=O)O` [L-arginine phytanate, 3,7,11,15-tetramethylhexadecanoic L-arginine salt], the weight gain (experienced weight trained person, 3 grams orally post workout for 4 weeks as a beverage, end of 4-week period compared to baseline) came out at 5 lbs. Under setting [1], the “increase in 1 repetition maximum (RM) bench press” value came out at 25 pound and the “increase in initial 70 percent maximum bench press” value is 6 repetition.

On to `CC(C)CCCC(C)CCCC(C)CCCC(C)CC(=O)O` (stereo not drawn) [phytanic acid, 3,7,11,15-tetramethylhexadecanoic acid], for which, under setting [2], the “1 repetition maximum bench press change” value was “no increases”, the “70 percent maximum bench press change” value was “no increases” and the body weight change entry is given as “no increases; also recorded: decrease in body weight”.
